From patent US9695155B2, “Herbicidal substituted pyrimidinyloxy benzene compounds” (E. I. DU PONT DE NEMOURS AND COMPANY, priority 2013, dated 2017)

Key:
[1] = tested on: deadnettle; test: Test D preemergence; format: in vivo, Lamium amplexicaule
Excerpt: (§1) Seeds of plant species selected from bluegrass (annual bluegrass, Poa annua), blackgrass (Alopecurus myosuroides), canarygrass (littleseed canarygrass, Phalaris minor), chickweed (common chickweed, Stellaria media), galium (catchweed bedstraw, Galium aparine), bromegrass, downy (downy bromegrass, Bromus tectorum), field poppy (Papaver rhoeas), field violet (Viola arvensis), green foxtail (Setaria viridis), deadnettle (henbit deadnettle, Lamium amplexicaule), Italian ryegrass (Lolium multiflorum), kochia (Kochia scoparia), lambsquarters (Chenopodium album), oilseed rape (Brassica napus), pigweed (Amaranthus retroflexus), chamomile (scentless chamomile, Matricaria inodora), Russian thistle (Salsola kali), speedwell (bird's-eye speedwell, Veronica persica), spring barley (Hordeum vulgare), spring wheat (Triticum aestivum), wild buckwheat (Polygonum convolvulus), wild mustard (Sinapis arvensis), wild oat (Avena fatua), wild radish (Raphanus raphanistrum), windgrass (Apera spica-venti), winter barley (Hordeum vulgare), and winter wheat (Triticum aestivum) were planted into a silt loam soil and treated preemergence with test chemicals formulated in a non-phytotoxic solvent mixture which included a surfactant.
(§2) At the same time, these species were planted in pots containing Redi-Earth® planting medium (Scotts Company, 14111 Scottslawn Road, Marysville, Ohio 43041) comprising spaghnum peat moss, vermiculite, wetting agent and starter nutrients and treated with postemergence applications of the test chemicals formulated in the same manner. Plants ranged in height from 2 to 18 cm (1- to 4-leaf stage). Treated plants and controls were maintained in a controlled growth environment for 7 to 21 days after which time all species were compared to controls and visually evaluated. Plant response ratings, summarized in Table D, are based on a scale of 0 to 100 where 0 is no effect and 100 is complete control. A dash (-) response means no test result.

[2] = tested on: spring wheat; test: Test D preemergence; format: in vivo, Triticum aestivum
Excerpt: as §1, §2

[3] = tested on: winter wheat; test: Test D preemergence; format: in vivo, Triticum aestivum
Excerpt: as §1, §2

[4] = tested on: wild mustard; test: Test D preemergence; format: in vivo, Sinapis arvensis
Excerpt: as §1, §2

[5] = tested on: bluegrass; test: Test D postemergence; format: in vivo, Poa annua
Excerpt: as §1, §2

[6] = tested on: galium; test: Test D postemergence; format: in vivo, Galium aparine
Excerpt: as §1, §2

[7] = tested on: field violet; test: Test D postemergence; format: in vivo, Viola arvensis
Excerpt: as §1, §2

[8] = tested on: Italian ryegrass; test: Test D postemergence; format: in vivo, Lolium multiflorum
Excerpt: as §1, §2

[9] = tested on: oilseed rape; test: Test D postemergence; format: in vivo, Brassica napus
Excerpt: as §1, §2

[10] = 16 g ai/ha, scale 0 (no effect) to 100 (complete control)
[11] = 31 g ai/ha, scale 0 (no effect) to 100 (complete control)
[12] = 31 g ai/ha, scale 0 to 100 (0 no effect, 100 complete control)
[13] = 62 g ai/ha, scale 0 to 100 (0 no effect, 100 complete control)
[14] = 125 g ai/ha, scale 0 to 100 (0 no effect, 100 complete control)
[15] = 250 g ai/ha, scale 0 to 100 (0 no effect, 100 complete control)

`Clc1cnc(Oc2ccccc2-n2cc(Cl)cn2)nc1` [Compound 3] was tested, and the “Plant response rating, Deadnettle” value [1, 10] was 30, the “Plant response rating, Deadnettle” value ([1]; 31 g ai/ha, scale 0-100) was 30 and the “Plant response rating, Deadnettle” value ([1]; 62 g ai/ha, scale 0-100) was 40. For the same molecule, the “Plant response rating, Deadnettle” value ([1]; 125 g ai/ha, scale 0-100) was 40, the “Plant response rating, Deadnettle” value ([1]; 250 g ai/ha, scale 0-100) was 50 and the “Plant response rating, Wheat, Spring” value [2, 10] was 0. The “Plant response rating, Wheat, Spring” value [2, 11] was 0, the “Plant response rating, Wheat, Spring” value ([2]; 62 g ai/ha, scale 0-100) was 0 and the “Plant response rating, Wheat, Spring” value ([2]; 125 g ai/ha, scale 0-100) was 0. The “Plant response rating, Wheat, Spring” value ([2]; 250 g ai/ha, scale 0-100) was 0, the “Plant response rating, Wheat, Winter” value [3, 10] was 0 and the “Plant response rating, Wheat, Winter” value [3, 11] was 0. For the same molecule, the “Plant response rating, Wheat, Winter” value ([3]; 62 g ai/ha, scale 0-100) was 0, the “Plant response rating, Wheat, Winter” value ([3]; 125 g ai/ha, scale 0-100) was 0 and the “Plant response rating, Wheat, Winter” value ([3]; 250 g ai/ha, scale 0-100) was 0. The “Plant response rating, Mustard, Wild” value [4, 10] was 30, the “Plant response rating, Mustard, Wild” value ([4]; 31 g ai/ha, scale 0-100) was 80 and the “Plant response rating, Mustard, Wild” value ([4]; 62 g ai/ha, scale 0-100) was 80. The “Plant response rating, Mustard, Wild” value ([4]; 125 g ai/ha, scale 0-100) was 90, the “Plant response rating, Mustard, Wild” value ([4]; 250 g ai/ha, scale 0-100) was 100 and the “Plant response rating, Bluegrass” value ([5]; Postemergence, 62 g ai/ha, scale 0 to 100 (0 no effect, 100 complete control)) was 0. For the same molecule, the “Plant response rating, Bluegrass” value ([5]; Postemergence, 31 g ai/ha, scale 0 to 100 (0 no effect, 100 complete control)) was 0, the “Plant response rating, Bluegrass” value ([5]; Postemergence, 125 g ai/ha, scale 0 to 100 (0 no effect, 100 complete control)) was 0 and the “Plant response rating, Bluegrass” value ([5]; Postemergence, 250 g ai/ha, scale 0 to 100 (0 no effect, 100 complete control)) was 10. The “Plant response rating, Bluegrass” value ([5]; postemergence, 16 g ai/ha, scale 0 to 100, 0 no effect, 100 complete control) was 40, the “Plant response rating, Galium” value ([6]; 16 g ai/ha, scale 0-100) was 40 and the “Plant response rating, Galium” value [6, 12] was 30. For the same molecule, the “Plant response rating, Galium” value [6, 13] was 40, the “Plant response rating, Galium” value [6, 14] was 45 and the “Plant response rating, Galium” value [6, 15] was 75. For the same molecule, the “Plant response rating, Field Violet” value ([7]; 16 g ai/ha, scale 0-100) was 20, the “Plant response rating, Field Violet” value [7, 12] was 5 and the “Plant response rating, Field Violet” value [7, 13] was 5. The “Plant response rating, Field Violet” value [7, 14] was 5, the “Plant response rating, Field Violet” value [7, 15] was 20 and the “Plant response rating, Ryegrass, Italian” value ([8]; 16 g ai/ha, scale 0-100) was 60. For the same molecule, the “Plant response rating, Ryegrass, Italian” value [8, 12] was 0, the “Plant response rating, Ryegrass, Italian” value [8, 13] was 0 and the “Plant response rating, Ryegrass, Italian” value [8, 14] was 0. The “Plant response rating, Ryegrass, Italian” value [8, 15] was 0, the “Plant response rating, Oilseed Rape” value ([9]; 16 g ai/ha, scale 0-100) was 90 and the “Plant response rating, Oilseed Rape” value [9, 12] was 80. For the same molecule, the “Plant response rating, Oilseed Rape” value [9, 13] was 80, the “Plant response rating, Oilseed Rape” value [9, 14] was 90 and the “Plant response rating, Oilseed Rape” value [9, 15] was 95.

`Fc1cccc(Oc2ncc(Cl)cn2)c1-n1cc(Br)cn1` [Compound 178, 2-[2-(4-bromo-1H-pyrazol-1-yl)-3-fluorophenoxy]-5-chloropyrimidine] was tested, and the pest or weed control at 16 g/ha ([1]; Lamium amplexicaule, pre-emergence, 16 g ai/ha, scale 0 (no effect) to 100 (complete control), read-out: Plant response rating, Deadnettle) was 50%, the pest or weed control at 31 g/ha ([1]; Lamium amplexicaule, pre-emergence, 31 g ai/ha, scale 0-100, read-out: Plant response rating, Deadnettle) was 60% and the pest or weed control at 62 g/ha ([1]; Lamium amplexicaule, pre-emergence, 62 g ai/ha, scale 0-100, read-out: Plant response rating, Deadnettle) was 75%. It also gave a pest or weed control at 125 g/ha ([1]; Lamium amplexicaule, pre-emergence, 125 g ai/ha, scale 0-100, read-out: Plant response rating, Deadnettle) of 100%, a pest or weed control at 16 g/ha ([4]; Brassica, pre-emergence, 16 g ai/ha, scale 0 (no effect) to 100 (complete control), read-out: Plant response rating, Mustard, Wild) of 25% and a pest or weed control at 31 g/ha ([4]; Brassica, pre-emergence, 31 g ai/ha, scale 0-100, read-out: Plant response rating, Mustard, Wild) of 35%. For the same molecule, the pest or weed control at 62 g/ha ([4]; Brassica, pre-emergence, 62 g ai/ha, scale 0-100, read-out: Plant response rating, Mustard, Wild) was 95%, the pest or weed control at 125 g/ha ([4]; Brassica, pre-emergence, 125 g ai/ha, scale 0-100, read-out: Plant response rating, Mustard, Wild) was 95% and the pest or weed control at 16 g/ha ([5]; Poa annua, post-emergence, Postemergence, 16 g ai/ha, scale 0 to 100 (0 no effect, 100 complete control), read-out: Plant response rating, Bluegrass) was 20%. It also gave a pest or weed control at 31 g/ha ([5]; Poa annua, post-emergence, Postemergence, 31 g ai/ha, scale 0 to 100 (0 no effect, 100 complete control), read-out: Plant response rating, Bluegrass) of 30%, a pest or weed control at 62 g/ha ([5]; Poa annua, post-emergence, Postemergence, 62 g ai/ha, scale 0 to 100 (0 no effect, 100 complete control), read-out: Plant response rating, Bluegrass) of 35% and a pest or weed control at 125 g/ha ([5]; Poa annua, post-emergence, Postemergence, 125 g ai/ha, scale 0 to 100 (0 no effect, 100 complete control), read-out: Plant response rating, Bluegrass) of 55%. It also gave a pest or weed control at 16 g/ha ([6]; Galium, post-emergence, 16 g ai/ha, scale 0-100, read-out: Plant response rating, Galium) of 75%, a pest or weed control at 31 g/ha ([6]; Galium, post-emergence, 31 g ai/ha, scale 0 to 100 (0 no effect, 100 complete control), read-out: Plant response rating, Galium) of 75% and a pest or weed control at 62 g/ha ([6]; Galium, post-emergence, 62 g ai/ha, scale 0 to 100 (0 no effect, 100 complete control), read-out: Plant response rating, Galium) of 75%. The pest or weed control at 125 g/ha ([6]; Galium, post-emergence, 125 g ai/ha, scale 0 to 100 (0 no effect, 100 complete control), read-out: Plant response rating, Galium) was 80%, the pest or weed control at 16 g/ha ([7]; Viola arvensis, post-emergence, 16 g ai/ha, scale 0-100, read-out: Plant response rating, Field Violet) was 50% and the pest or weed control at 31 g/ha ([7]; Viola arvensis, post-emergence, 31 g ai/ha, scale 0 to 100 (0 no effect, 100 complete control), read-out: Plant response rating, Field Violet) was 60%. It also gave a pest or weed control at 62 g/ha ([7]; Viola arvensis, post-emergence, 62 g ai/ha, scale 0 to 100 (0 no effect, 100 complete control), read-out: Plant response rating, Field Violet) of 65%, a pest or weed control at 125 g/ha ([7]; Viola arvensis, post-emergence, 125 g ai/ha, scale 0 to 100 (0 no effect, 100 complete control), read-out: Plant response rating, Field Violet) of 70% and a pest or weed control at 16 g/ha ([8]; Lolium multiflorum, post-emergence, 16 g ai/ha, scale 0-100, read-out: Plant response rating, Ryegrass, Italian) of 0%. For the same molecule, the pest or weed control at 31 g/ha ([8]; Lolium multiflorum, post-emergence, 31 g ai/ha, scale 0 to 100 (0 no effect, 100 complete control), read-out: Plant response rating, Ryegrass, Italian) was 0%, the pest or weed control at 62 g/ha ([8]; Lolium multiflorum, post-emergence, 62 g ai/ha, scale 0 to 100 (0 no effect, 100 complete control), read-out: Plant response rating, Ryegrass, Italian) was 5% and the pest or weed control at 125 g/ha ([8]; Lolium multiflorum, post-emergence, 125 g ai/ha, scale 0 to 100 (0 no effect, 100 complete control), read-out: Plant response rating, Ryegrass, Italian) was 15%. It also gave a plant injury at 16 g/ha ([9]; Brassica napus, post-emergence, 16 g ai/ha, scale 0-100, read-out: Plant response rating, Oilseed Rape) of 60%, a plant injury at 31 g/ha ([9]; Brassica napus, post-emergence, 31 g ai/ha, scale 0 to 100 (0 no effect, 100 complete control), read-out: Plant response rating, Oilseed Rape) of 65% and a plant injury at 62 g/ha ([9]; Brassica napus, post-emergence, 62 g ai/ha, scale 0 to 100 (0 no effect, 100 complete control), read-out: Plant response rating, Oilseed Rape) of 80%. The plant injury at 125 g/ha ([9]; Brassica napus, post-emergence, 125 g ai/ha, scale 0 to 100 (0 no effect, 100 complete control), read-out: Plant response rating, Oilseed Rape) was 90%.
